Results from ChEMBL document CHEMBL1201862, “PubChem BioAssay data set” (2004).
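The compound was tested at five concentrations on cells cultured in 96-well plates, with a 48-hour exposure period. At the GI50, growth is halved.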 Calls of active or inactive are those of the source. Rule as the data show it: active = GI50 up to about 1.1 µM and inactive = higher.

Tests used:
Assay in all cases: NCI tumour cell line growth inhibition, 48 h
KM-20L2 = system: KM-20L2
DU-145 = system: DU-145
HOP-18 = system: HOP-18
MCF7 = system: MCF7
BT-549 = system: BT-549
MDA-MB-435 = system: MDA-MB-435
DMS-114 = system: DMS-114
DMS-273 = system: DMS-273
RXF 631 = system: RXF 631

Row | SMILES | GI50 (KM-20L2) | GI50 (DU-145) | GI50 (HOP-18) | GI50 (MCF7) | GI50 (BT-549) | GI50 (MDA-MB-435) | GI50 (DMS-114) | GI50 (DMS-273) | GI50 (RXF 631)
1 | C=C=C(Sc1ccccc1)C(C)(C)OC(C)=O | 26.3 µM (inactive) | 27.2 µM (inactive) | 20 µM (inactive) | – | – | – | – | – | –
2 | CN1C(=O)N(C)C2(CCN(CC(CC3OCCO3)c3ccc(F)cc3)CC2)C1=O (stereo not given) | – | > 100 µM (inactive) | – | > 100 µM (inactive) | > 100 µM (inactive) | > 100 µM (inactive) | – | – | –
3 | C/C(C[n+]1ccccc1)=N\N=C(N)N | – | > 100 µM (inactive) | – | > 100 µM (inactive) | > 100 µM (inactive) | > 100 µM (inactive) | – | – | –
4 | C[Si](C)(N[Si](C)(C)OCCc1ccccc1)OCCc1ccccc1 | – | > 100 µM (inactive) | – | > 100 µM (inactive) | > 100 µM (inactive) | > 100 µM (inactive) | – | – | –
5 | N#CC1(C#N)C(c2ccccc2)NC23CCCCC2C1(C#N)C(=O)N3 (stereo not given) | – | > 100 µM (inactive) | – | > 100 µM (inactive) | > 100 µM (inactive) | > 100 µM (inactive) | – | – | –
6 | O=C(CCc1ccc(O)cc1)NCCc1cccc(O)c1 | – | > 50 µM (inactive) | – | > 50 µM (inactive) | > 50 µM (inactive) | > 50 µM (inactive) | – | – | –
7 | C1=CCN(c2ccccc2)CC1 | 55.6 µM (inactive) | – | 63.5 µM (inactive) | – | – | – | 32.4 µM (inactive) | > 100 µM (inactive) | > 100 µM (inactive)
8 | O=C(O)C(CSC(c1ccccc1)(c1ccccc1)c1ccccc1)/N=C/c1cccs1 (stereo not given) | – | 3.85 µM (inactive) | – | 0.853 µM (active) | 4.97 µM (inactive) | 0.324 µM (active) | – | – | –
9 | Cc1cc(C)c2c(O)cc(-c3cccc4ccccc34)nc2n1 | – | 2.71 µM (inactive) | – | 0.719 µM (active) | 3.3 µM (inactive) | 0.172 µM (active) | – | – | –
10 | COc1cc(C(=O)CC2OC(=O)C(Cl)=C2Cl)ccc1Cl (stereo not given) | > 100 µM (inactive) | – | > 100 µM (inactive) | – | – | – | > 100 µM (inactive) | > 100 µM (inactive) | > 100 µM (inactive)
11 | CC[n+]1c(-c2ccccc2)c2cc(N)ccc2c2ccc(N)cc21 [HOMIDIUM BROMIDE] | – | 7.57 µM (inactive) | – | 2 µM (inactive) | 1.14 µM (inactive) | 3.5 µM (inactive) | – | – | –
12 | NC(CP(=O)(O)O)C(=O)O (stereo not given) | – | > 100 µM (inactive) | – | > 100 µM (inactive) | > 100 µM (inactive) | > 100 µM (inactive) | – | – | –
13 | N#CC(C#N)=C1CCC2C(=C(C#N)C#N)CCC12 (stereo not given) | > 100 µM (inactive) | – | – | – | – | – | > 100 µM (inactive) | > 100 µM (inactive) | > 100 µM (inactive)
14 | O=C(O)C1CC2C=CCC(C2)C1 (stereo not given) | > 100 µM (inactive) | – | > 100 µM (inactive) | – | – | – | > 100 µM (inactive) | > 100 µM (inactive) | –
15 | CC1SC2=NC3=C(c4ccccc4C3=O)C(c3ccccc3Cl)N2C1=O (stereo not given) | > 100 µM (inactive) | – | – | – | – | – | > 100 µM (inactive) | > 100 µM (inactive) | > 100 µM (inactive)
16 | CC(C)OP(=O)(OC(C)C)/C(F)=N/Nc1ccc([N+](=O)[O-])cc1 | > 100 µM (inactive) | – | – | – | – | – | > 100 µM (inactive) | > 100 µM (inactive) | –
17 | CC(Cc1ccccc1)NC1=NCCO1 (stereo not given) | – | – | – | > 100 µM (inactive) | – | – | – | – | –

Row | SMILES | GI50 (KM-20L2) | GI50 (DU-145) | GI50 (HOP-18) | GI50 (MCF7) | GI50 (BT-549) | GI50 (MDA-MB-435) | GI50 (DMS-114) | GI50 (DMS-273) | GI50 (RXF 631)
18 | O=C(C1=C(C(=O)c2ccccc2)SC2(S1)C(C(=O)c1ccccc1)=C(C(=O)c1ccccc1)Sc1c2ssc1=O)c1ccccc1 | – | 72.8 µM (inactive) | – | > 100 µM (inactive) | 80.4 µM (inactive) | 70.6 µM (inactive) | – | – | –
19 | COC1(O)c2cccc(Cl)c2C(=O)N1C1(C(N)=O)CCCCC1 (stereo not given) | > 100 µM (inactive) | – | > 100 µM (inactive) | > 100 µM (inactive) | – | – | > 100 µM (inactive) | > 100 µM (inactive) | –
20 | C1CCCCc2nc3c(nc2CCC1)c1nc2c(nc1c1nc4c(nc31)CCCCCCCC4)CCCCCCCC2 | > 100 µM (inactive) | – | > 100 µM (inactive) | – | – | – | – | – | > 100 µM (inactive)
21 | COc1ccc(C[C@H]2COC(=O)[C@@H]2Cc2cccc(Br)c2)cc1OC | – | 33.3 µM (inactive) | – | 16.2 µM (inactive) | 13.9 µM (inactive) | 26.6 µM (inactive) | – | – | –
22 | CCc1ccc2nc(-c3ccc(O)cc3)sc2c1 | – | 15 µM (inactive) | – | 20.2 µM (inactive) | 16.3 µM (inactive) | 19.2 µM (inactive) | – | – | –
23 | Nc1ccc(S(=O)(=O)c2ccc(NCN3C(=O)NC(=O)C(=O)C3=O)cc2)cc1 [ALLANTODAPSONE] | – | – | – | – | > 100 µM (inactive) | > 100 µM (inactive) | – | – | –
24 | COc1ccc(Nc2cnc3cc(N)ccc3n2)cc1OC | 63.1 µM (inactive) | – | – | – | – | – | 47 µM (inactive) | 56.2 µM (inactive) | –
25 | c1ccc(COc2cccc3ccc[n+](Cc4ccccc4)c23)cc1 | 4.12 µM (inactive) | – | 2.07 µM (inactive) | – | – | – | 2.99 µM (inactive) | 3.8 µM (inactive) | 18.9 µM (inactive)
26 | COc1ccc(-c2cc(N3CCN(c4ccccc4)CC3)c(C#N)c(=O)o2)cc1 | > 100 µM (inactive) | – | 4.88 µM (inactive) | – | – | – | 22.1 µM (inactive) | 40 µM (inactive) | 21.5 µM (inactive)
27 | O=C(O)/C(O)=C1/C=C(c2ccccc2)c2ccccc21 | 33.7 µM (inactive) | – | 22 µM (inactive) | – | – | – | 18.7 µM (inactive) | 18.6 µM (inactive) | 28.6 µM (inactive)
28 | CN(N=O)c1nc2c(C(N)=O)ncn2s1 | – | 20 µM (inactive) | – | 86.7 µM (inactive) | > 100 µM (inactive) | 53.2 µM (inactive) | – | – | –
29 | O=C(Nc1nccs1)c1c(O)nc2sccn2c1=O | – | > 10 µM (inactive) | – | > 10 µM (inactive) | – | > 10 µM (inactive) | – | – | –
30 | CSc1nc2c(nc(N)n2C2OCC(O)C(O)C2O)c(=O)[nH]1 (stereo not given) | > 100 µM (inactive) | – | > 100 µM (inactive) | – | – | – | > 100 µM (inactive) | – | > 100 µM (inactive)
31 | Cc1c2ccncc2c(C)c2c1[nH]c1ccc(OCCN(C)C)cc12 | 0.113 µM (active) | – | 0.598 µM (active) | 0.164 µM (active) | – | – | – | 0.0998 µM (active) | –
32 | CC(=O)c1ccc(NC(=O)/C(CC(=O)/C=C/c2ccccc2)=N/NC(N)=S)cc1 | – | – | – | 34.4 µM (inactive) | > 100 µM (inactive) | > 100 µM (inactive) | – | – | –
33 | CC(C)=CCC/C(C)=C/CC/C(C)=C/C(O)c1ccccc1 (stereo not given) | 21.3 µM (inactive) | – | – | – | – | – | 18.3 µM (inactive) | – | 18 µM (inactive)
34 | O=C1CCCC1C(O)(C(F)(F)Cl)C(F)(F)Cl (stereo not given) | – | > 10 µM (inactive) | – | > 10 µM (inactive) | > 10 µM (inactive) | > 10 µM (inactive) | – | – | –
